Experimental data from ChEMBL document CHEMBL2440110, “Synthesis of azide derivative and discovery of glyoxalase pathway inhibitor against pathogenic bacteria” (Bioorg Med Chem Lett, 2013).
Values after ≈ are worked out from the molar mass of the structure shown.

How the values were obtained:
[1] = test system: PBMC; experiment: Cytotoxicity against PBMC (unknown origin) at 0.05 mM after 8 hrs by MTT assay; assay type: cell-based; conditions: 50 µM
[2] = test system: Mycolicibacterium smegmatis; experiment: Antibacterial activity against Mycobacterium smegmatis; assay type: functional
[3] = test system: Staphylococcus aureus; experiment: Antibacterial activity against Staphylococcus aureus after 24 hrs by Alamar blue assay; assay type: functional
[4] = test system: Burkholderia thailandensis; experiment: Antibacterial activity against Burkholderia thailandensis; assay type: functional

SMILES | Activity [1] | MIC90 [2] [µg/mL] | MIC90 [3] [µg/mL] | MIC90 [4] [µg/mL]
COC(=O)[C@@H](N=[N+]=[N-])[C@@H](OC(=O)CNC(=O)C(CS)NC(=O)CCC(NC(=O)OCc1ccccc1)C(=O)O)C(=O)OC (stereo partly specified) | Non-toxic | 6 (≈ 9.58 µM) | 5 (≈ 7.98 µM) | 
O=C(O)CNC(=O)C(CS)NC(=O)CCC(NC(=O)OCc1ccccc1)C(=O)O (stereo unspecified) | Non-toxic |  | 20 (≈ 45.3 µM) | 12.5 (≈ 28.3 µM)
